PMC12669049, “Energy-transfer photoproximity labelling in live cells using an organic cofactor” (Nature Chemistry, 2025)
Values joined by “and” are separate entries in the source; they are usually repeats but may differ in a detail not shown here. Identical values can stand only once.

Legend:
[1] = Stationary and time-resolved absorption and emission spectroscopy (photophysics); type: physicochemical
From the text: (§1) Details of the stationary and time-resolved absorption and emission spectroscopy procedures used for the mechanistic studies are given in Supplementary Section 3.3.

[2] = Phenyl azide S3 conversion via HPLC
Description: 3.2 Photocatalyst Screening
3.2.1 Phenyl azide conversion via HPLC
To an 8 mL crimp neck vial with magnetic stirrer bar was added a solution of phenyl azide S3 (1 mM, 10 µL of 100 mM DMSO stock) and photocatalyst (PC, 0.1 mM, 10 µL of 10 mM DMSO stock) in PBS pH = 7.4 (1 mL). The vial was sealed and sparged with Ar for 10 min before being irradiated with a 450 nm light (40W, EvoluChem, PhotoRedOx Box) for 15 min. […]
trifluoromethylbenzoic acid as the internal standard (1 mM) and analysed using analytical HPLC (see Section 2.5 for further details). Conversions were calculated using standard calibration curve of phenyl azide S3 vs. internal standard and are represented as the average of duplicate runs.
Calibration curve of phenyl azide S3 vs. internal standard
(also on this page, place not known: Normalised Intensity (Substrate/Standard))

[3] = Photocatalytic conversion of diazirine, analysis via 19F NMR
Description: To an 8 ml crimp neck vial with a magnetic stirrer bar was added a solution of diazirine (100 µM, 10 µl of 10 mM DMSO stock) and photocatalyst (10 µM, 10 µl of 1 mM DMSO stock) in PBS (pH = 7.4, 1 ml). The vial was sealed and sparged with Ar for 10 min before being irradiated with 450 nm light (30 W LED; EvoluChem, PhotoRedOx Box) for 15 min. The solution was then spiked with p-(trifluoromethyl)benzoic acid as the internal standard (100 µM, chemical shift (δ) = −61.35 ppm) and analysed via ^19F NMR to determine the conversion of diazirine (δ = −64.23 ppm) to the carbinol product (δ = −76.64 ppm)[17]. Conversions are represented as the average of duplicate runs.

[4] = Transient absorption of 4 with substrates (triplet energy / electron transfer); type: physicochemical; settings: GSH 50 mM
From the text: as §1

HeLa cells = assay: Cell viability assay (WST-1); type: cell-based; settings: WST-1, 24 h incubation, Extended Data Fig. 5a
[5] = cited from earlier work
[6] = test system: reporter HEK293T cells expressing cytoplasmic HaloTag–SNAP-tag fusion protein; assay: Modified chloroalkane penetration assay (CAPA), HEK293T; type: in vitro ADME; settings: 1 h pulse, flow cytometry, Extended Data Fig. 6b, representative data of two biological replicates
Description: (§2) CA–TMR-d12 and BG–SiR-d12 were prepared as described previously. HeLa or HEK293T cells were seeded onto 10 cm cell culture dishes and allowed to attach for 24 h under standard cell culture maintenance conditions. The culture medium was replaced with fresh DMEM (5 ml, high glucose) with 10% FCS without antibiotics followed by plasmid (pcDNA5-HaloTag-Pro30-SNAP-tag) transfection using Lipofectamine 3000 (Thermo) according to Supplementary Section 2.8. After 24 h, the transfected cells were trypsinized, seeded into 24-well cell culture plates (1 × 10^5 cells per well) and incubated again for 24 h. […] Cell pellets were resuspended in PBS (400 µl) and analysed via flow cytometry (FACS Fortessa). The mean fluorescence intensity (MFI) values in the TMR and Cy5 (SiR) channels of live cells were determined. […] Equation (2) below was used to determine the percentage fluorescence intensity:2 Fluorescenceintensity%=(photocatalyst−chloroalkaneMFITMR)−(photocatalystMFITMR)/(CA−NHBocMFITMR)−(photocatalystMFITMR)×100.

[7] = test system: reporter HeLa cells expressing cytoplasmic HaloTag–SNAP-tag fusion protein; assay: Modified chloroalkane penetration assay (CAPA), HeLa; type: in vitro ADME; settings: modified pulse-chase CAPA, 1 h pulse in FluoroBrite DMEM, chase CA–TMR-d12 15 min, BG–SiR-d12 1 µM for normalisation, flow cytometry, Fig. 4f, three biological replicates (mean ± SD)
Description: as §2

[8] = PBS pH 7.4, S3 1 mM, photocatalyst 0.1 mM, 450 nm 15 min, HPLC calibration curve, average of duplicate runs
[9] = PBS pH 7.4, diazirine 100 µM, photocatalyst 10 µM, 450 nm LED 15 min, average of duplicate runs

diMeO-deazaflavin [S1]
λmax ([1]; Supplementary Fig. 4): 418 nm | Conversion of aryl azide S3 [2, 8]: 79% | Conversion of diazirine 1 [3, 9]: < 50% and 44%

N[C@@H](CCC(=O)N[C@@H](CS)C(=O)NCC(=O)O)C(=O)O [GSH, glutathione]
Quantum yield of electron transfer ΦeT to triplet state of 4 [4]: 73%

Ir[dFCF3CO2Hppy]2[diolbpy] [3a]
λmax ([1]; Supplementary Fig. 4): 380 nm | Cytotoxicity (in words) (HeLa cells): do not induce cytotoxicity | Conversion of aryl azide S3 [2, 8]: 84% | Triplet energy (ET, E0–0,T1) [5]: 60.1 kcal/mol

Riboflavin tetraacetate [RTA]
Conversion of aryl azide S3 ([2]; pH 7.4): 69%

diMeO-alloxazine [S2]
λmax ([1]; Supplementary Fig. 4): 396 nm | Conversion of aryl azide S3 [2, 8]: 94%

O=c1c2ccccc2sc2ccccc12 [2a, thioxanthone]
λmax of first absorption band ([1]; Fig. 1a, footnote a (footnote text not shown; a = 1:1 DMSO/H2O in Supplementary Fig. 4)): 385 nm | λmax ([1]; Supplementary Fig. 4): 387 nm | Conversion of aryl azide S3 [2, 8]: 77% | Conversion of diazirine 1 [3, 9]: 71% and > 70% | Triplet energy (ET, E0–0,T1) [5]: 67.4 kcal/mol

O=C1OC2(c3ccccc31)c1cc(Br)c(O)c(Br)c1Oc1c2cc(Br)c(O)c1Br [EY, eosin Y]
Cytotoxicity (in words) (HeLa cells): do not induce cytotoxicity

MeO-thioxanthone [2b]
Conversion of aryl azide S3 [2, 8]: 61% | Conversion of diazirine 1 [3, 9]: < 5%

Cn1c2nc(=O)[nH]c(=O)c-2cc2ccccc21 [compound 4, deazaflavin]
Conversion of aryl azide S3 [2, 8]: 100% | Conversion of diazirine 1 ([3]; 1:1 DMSO/H2O, 450 nm 15 min): 85%

Cn1c2nc(=O)n(CC(=O)NCCOCCOCCCCCCCl)c(=O)c-2cc2ccccc21 [compound 15]
CP50 [6]: 2,063 nM | CP50 (treatment concentration where 50% of the HaloTags are labelled) [7]: 198 ± 79.2 nM

CC(C)(C)c1ccnc(-c2cc(C(C)(C)C)ccn2)c1.F[P-](F)(F)(F)(F)F.Fc1c[c-]c(-c2ccc(C(F)(F)F)cn2)c(F)c1.Fc1c[c-]c(-c2ccc(C(F)(F)F)cn2)c(F)c1.[Ir+3] [3b, [Ir(dF(CF3)ppy)2(dtbbpy)]PF6]
λmax ([1]; Supplementary Fig. 4, 1:1 DMSO/H2O): 380 nm | Singlet oxygen quantum yield ΦΔ ([1]; in acetonitrile): 93% | Triplet energy (ET, E0–0,T1) [5]: 60.1 kcal/mol
